{"source": "patent US20220408724A1", "about": "“METHOD FOR CONTROLLING METABOLISM OF BRANCHED FATTY ACID” (KAO CORPORATION, priority 2019, published 2022)", "type_in_all_cases": "cell-based", "key": {"Rhodotorula mucilaginosa [1]": {"test_system": "Rhodotorula mucilaginosa", "test": "Suppression of metabolism of 14-methylhexadecanoic acid on cotton fabric", "settings": "agent 250 μg/fabric g", "experimental": "(§1) A methanol solution in which 14-methylhexadecanoic acid (SIGMA-ALDRICH) was dissolved was added dropwise to 3 cm×3 cm pieces of sterilized plain-weave cotton fabric to make it adhered to the fabric. The adhesion amount of 14-methylhexadecanoic acid was set to 10 μg per piece of the plain-weave cotton fabric (100 μg/fabric g).\n(§2) Further, a methanol solution in which each metabolism controlling agent was dissolved was prepared and added dropwise to the fabric to which 14-methylhexadecanoic acid adhered, and it was thereafter dried for an hour. This fabric was placed in a sterilized screw tube bottle No. 3 (Maruemu Corporation) and 100 μl of the bacterial suspension was inoculated thereto, and culture was carried out under 37° C.; conditions for 21 hours.\n(§3) 3 ml of methanol was added to the screw tube bottle after culture, and extraction was carried out under ultrasonic irradiation for 30 minutes (20° C.). The extraction liquid was mixed with a (trimethylsilyl)diazomethane hexane solution (FUJIFILM Wako Pure Chemical Corporation) at 9:1 (volume ratio) and left overnight under room temperature and dark place conditions. After that, 14-methylhexadecanoic acid remaining on the fabric was quantified by GC. The quantification conditions for GC are as follows. • GC: Agilent 7890A • GC column: Agilent DB-1 30 m×250 μm×0.25 μm • Temperature rise condition: 50° C. (held for 3 minutes)-(10° C./min)-300° C. (held for 5 minutes) • Sample injection volume: 1 μl • Split ratio: 1:12 • Detector: FID\n(§4) The residual amount of 14-methylhexadecanoic acid after culture on the fabric to which the metabolism controlling agent was added was quantified, and the ratio of the residual amount to that of 14-methylhexadecanoic acid in the case of adding no metabolism controlling agent (control) was calculated as a metabolism suppression rate (%). The higher a numerical value thereof is, the more the metabolism is suppressed. Note that the metabolism suppression rate was determined by the following formula:\n(§5) Metabolism suppression rate(%)=[1−(100−A)/(100−B)]×100 • A: residual amount of 14-methylhexadecanoic acid of example or comparative example (μg/fabric g) • B: residual amount of 14-methylhexadecanoic acid of control (μg/fabric g)\n(§6) The metabolism of 14-methylhexadecanoic acid by yeast of the genus Rhodotorula was tested in the same manner as in example 1.\n(§7) In this example, Rhodotorula mucilaginosa (strain isolated from clothing) was used as a microorganism.\n(§8) Further, in this example, the bacteria were precultured under conditions of a PDA agar medium (Difco), 30° C.; and 48 hours.\n(§9) Further, in this example, a bacterial suspension of 10^7 (CFU/ml) prepared by using a PDB liquid medium (Difco) diluted to 1/10 with ion exchange water was used as a bacterial suspension."}, "Rhodotorula mucilaginosa [2]": {"test_system": "Rhodotorula mucilaginosa", "test": "Measurement of viable count on fabric (PDA agar)", "experimental": "(§10) After culture on fabric prepared in the same manner as in the above (1), 9 mL of an LP diluent (manufactured by NIHON PHARMACEUTICAL CO., LTD.) was added, and the extraction of the bacteria was carried out under ultrasound for 10 minutes. The extraction liquid was poured and mixed to an SCD-LP agar medium (NIHON PHARMACEUTICAL CO., LTD.), and culture was thereafter carried out at 37° C.; for a day. The number of colonies obtained on each piece of the fabric was counted, and a common logarithm value thereof was measured as the viable bacterial count. […] In addition, the […], the more the viable bacterial count of the microorganism is maintained.\nas §6, §7, §8, §9\nFurther, in this example, after the extraction of the bacteria in (3) of example 1, they were poured and mixed to a PDA agar medium (Difco) and thereafter cultured at 30° C.; for 2 days, and the viable bacterial count was measured.\n(§11) Note that, in this example, C12OH (1-dodecanol) was used as the metabolism controlling agent."}, "Micrococcus aloeverae": {"test_system": "Micrococcus aloeverae", "test": "Measurement of viable bacterial count on fabric", "experimental": "as §10\nThe metabolism of 14-methylhexadecanoic acid by bacteria of the genus Micrococcus was tested in the same manner as in example 1.\nIn this example, Micrococcus aloeverae (strain isolated from clothing) was used as a microorganism.\nFurther, in this example, a bacterial suspension of 10^7 (CFU/ml) prepared by using an SCD liquid medium (NIHON PHARMACEUTICAL CO., LTD.) diluted to 1/10 with ion exchange water was used as a bacterial suspension.\nas §11"}, "Moraxella osloensis": {"test_system": "Moraxella osloensis", "test": "Examination example: measurement of viable bacterial count", "settings": "single agent 100 μg/fabric g", "experimental": "as §10"}, "[3]": {"test_system": "Escherichia coli (NBRC3972)", "test": "Measurement of viable bacterial count on fabric", "experimental": "as §10\n(§12) The metabolism of 14-methylhexadecanoic acid by bacteria of the genus Escherichia (Escherichia coli) was tested in the same manner as in example 1.\n(§13) In this example, Escherichia coli (NBRC3972) was used as a microorganism.\n(§14) Further, in this example, a bacterial suspension of 10^6 (CFU/ml) prepared by using an NB liquid medium diluted to 1/10 with ion exchange water was used as a bacterial suspension.\nas §11"}, "[4]": {"test_system": "Escherichia coli (NBRC3972)", "test": "Suppression of metabolism of 14-methylhexadecanoic acid on cotton fabric", "experimental": "as §1, §2, §3, §4, §5, §12, §13, §14, §11"}}, "note": "Several values for one entry are separate records, joined by “and”; a condition that tells them apart may be missing. Equal values may be shown once.", "data": [{"smiles": "CCCCCCCCCCCCO", "note": "[Example C12OH, 1-dodecanol]", "values": [{"measurement": "Metabolism suppression rate (%)", "setting": "Rhodotorula mucilaginosa [1]", "value": 68, "unit": "%"}, {"measurement": "Bacterial count (Log (cfu/fabric cm^2))", "setting": "Rhodotorula mucilaginosa [2]; agent 250 μg/fabric g", "value": "4.9 Log (cfu/fabric cm^2)"}, {"measurement": "Bacterial count (Log (cfu/fabric cm^2))", "setting": "Rhodotorula mucilaginosa [2]; agent 500 μg/fabric g", "value": "4.7 Log (cfu/fabric cm^2)"}, {"measurement": "Bacterial count (Log (cfu/fabric cm^2))", "setting": "Rhodotorula mucilaginosa [2]; agent 1000 μg/fabric g", "value": "4.8 Log (cfu/fabric cm^2)"}, {"measurement": "Bacterial count (Log (cfu/fabric cm^2))", "setting": "Micrococcus aloeverae; agent 100 μg/fabric g", "value": "6.5 Log (cfu/fabric cm^2)"}, {"measurement": "Bacterial count (Log (cfu/fabric cm^2))", "setting": "Micrococcus aloeverae; agent 500 μg/fabric g", "value": "5.6 Log (cfu/fabric cm^2)"}, {"measurement": "Bacterial count (Log (cfu/fabric cm^2))", "setting": "Micrococcus aloeverae; agent 1000 μg/fabric g", "value": "5.6 Log (cfu/fabric cm^2)"}, {"measurement": "Viable bacterial count (Log (cfu/fabric cm^2))", "setting": "Moraxella osloensis", "value": "6.2 Log (cfu/fabric cm^2)"}, {"measurement": "Bacterial count (Log (cfu/fabric cm^2))", "setting": "[3]; agent 500 μg/fabric g", "value": "6.3 Log (cfu/fabric cm^2)"}, {"measurement": "Bacterial count (Log (cfu/fabric cm^2))", "setting": "[3]; agent 1000 μg/fabric g", "value": "6.3 Log (cfu/fabric cm^2) and 6.4 Log (cfu/fabric cm^2)"}, {"measurement": "Bacterial count (Log (cfu/fabric cm^2))", "setting": "[3]; agent 2000 μg/fabric g", "value": "6.3 Log (cfu/fabric cm^2)"}, {"measurement": "Bacterial count (Log (cfu/fabric cm^2))", "setting": "[3]; agent 3000 μg/fabric g", "value": "6.3 Log (cfu/fabric cm^2)"}, {"measurement": "Metabolism suppression rate (%)", "setting": "[4]; agent 500 μg/fabric g", "value": "39% and 21%"}, {"measurement": "Metabolism suppression rate (%)", "setting": "[4]; agent 1000 μg/fabric g", "value": "90% and 61%"}, {"measurement": "Metabolism suppression rate (%)", "setting": "[4]; agent 2000 μg/fabric g", "value": 66, "unit": "%"}, {"measurement": "Metabolism suppression rate (%)", "setting": "[4]; agent 3000 μg/fabric g", "value": 73, "unit": "%"}]}]}
